These results are taken from patent US20140088045A1, “PRODUCT COMPRISING A NICOTINE-CONTAINING MATERIAL AND AN ANTI-CANCER AGENT” (priority 2012, published 2014).

The test system of data set [1] is A549 human lung cancer cells. Description: A549 subcutaneous xenografts, PS V and erlotinib. As to conditions: by day 14; PS V 80 mg/kg ip, erlotinib 75 mg/kg po, 6 days/week; starting tumor volume subtracted. It counts as in vivo, nude mice. An excerpt: TO this end, we inoculated A549 human lung cancer cells subcutaneously into nude mice, following standard protocols.

In a further data set the test system is human cancer cells. Description: Cytotoxicity to human cancer cells. It counts as cell-based. As to conditions: intact PS V vs its three metabolites.
The subject of data set [2] is NF-κB. Description: NF-κB activation in orthotopic xenografts by immunohistochemistry. It counts as in vivo, nude mice. As to conditions: lung tissue of orthotopic A549 xenografts, PS V treatment as in Example 1. The method, then:
We evaluated the effect of PS V on the activation of NF-κB, the master regulator of inflammation, in cultured A549 human lung cancer cells as well as in human lung cancer xenografts from the same cells.
We established orthotopic xenografts in nude mice as described in Example 1. Following treatment of the mice with PS V in a similar manner, lung tissue was evaluated by immunohistochemistry, following standard protocols. We used an antibody that assesses activation of NF-κB by phosphorylation (Cell Signaling, Danvers, Mass.). FIG. 10 provides inhibitory effect of PS V on the activation of NF-κB.

The next data set has as its system inflammation. As to conditions: applied systemically or topically; cited from earlier work.
In data set [3] the test system is NF-κB. The data set is described as follows: NF-κB activation in cultured cells by Electrophoretic Mobility Shift Assay (EMSA). It counts as cell-based, human. As to conditions: cultured A549 cells; 1-2× its IC50 concentration for 6 h.
Data set [4] in a line: Drug levels in lungs and plasma after inhalation vs oral gavage. It counts as in vivo, mice. The source says:
The oral dose was 23 times higher than the inhalational dose.

The next data set relates to A549 xenografts. The data set is described as follows: A549 subcutaneous xenografts, PS V and curcumin. It counts as in vivo, female nude mice. As to conditions: for inhibition of tumor growth (in words): A549 xenografts, daily treatment to day 36; for reduction in tumor weight: end of study, vs control. The method, then:
Polymeric nanoparticles of poly(ε-caprolactone) (11000)-polyethylene glycol (5000) with entrapped curcumin were prepared according to the nanopercipitation-solvent displacement method. […] Then, the mice were inoculated subcutaneously on both flanks with […] cells (2×10^6 each). The treatment was resumed one day after tumor implantation and continued daily until the end of the study.

For data set [5] the following is noted: mouse, in vivo, inhaled or intranasal.
Protocol: (§1) After 8 min of inhalation treatment, BALB/c nude mice were euthanized at various time points. Drug levels were analyzed by HPLC in plasma and lung tissues.
Data set [6] can be described thus: Pharmacokinetic parameters after inhalational administration (HPLC, lung and plasma). As to conditions: after 8 min inhalation of PS V.
Protocol: as §1
The next data set relates to lung cancer. The note with it: pre-clinical models of lung cancer; cited from earlier work.
A short description of data set [7]: Aerosolization of compounds added to smoking tobacco (filter capture, HPLC). It counts as physicochemical. The note with it: lit cigarette, alone or mixed with erlotinib.
Description: We used an experimental system that recapitulates the essential features of the act of smoking (FIG. 8). In this apparatus, smoke from the lit cigarette was drawn through the tubing of the apparatus by external suction. […] The aerosolized test drug was deposited onto this filter. At the conclusion of the study, the filter was removed and the deposited test drug was extracted with acetonitrile and subjected to HPLC analysis, as already described.
FIG. 8. depicts the apparatus for the aerosolization of anticancer compounds. Upper panel: The test compound is added to the cigarette. […] When the system was turned on, the temperature in the heating chamber reached ˜200° C. Heating energy was provided by the battery through a resistance wire inside the heating chamber. Unimpeded flow of the gas phase in the ceramic chamber was allowed by its design; the arrows depict such flow.

As to `CCOP(=O)(OCC)OCCCCOC(=O)CC1=C(C)/C(=C/c2ccc([S+](C)[O-])cc2)c2ccc(F)cc21` (stereo not drawn) [PS V, phospho-sulindac], the “reduced tumor volume compared to controls” value in [1] amounted to 49%. Further, the “cytotoxicity compared with sulindac, sulindac sulfide XI and sulindac sulfone XII” value with human cancer cells is “more cytotoxic”. The “activation of NF-κB (phosphorylation, immunohistochemistry)” value in the data set on NF-κB [2] is “suppresses the activation of NF-κB”. The effect on inflammation result in the data set on inflammation was “eliminated or greatly reduced inflammation”. Moreover, the “NF-κB activation (EMSA)” value in the data set with NF-κB [3] is listed as “suppressed NF-κB activation”. Further, the “total drug levels (PS V plus its metabolites) in lungs” value in [4] (inhalation 6.5 mg/kg compared to oral 150 mg/kg) is recorded as “significantly higher”. The “level of intact PS V in lungs” value in data set [4] (inhalational 6.5 mg/kg body weight) is more than 20 nmol/g; in data set [4] (oral 150 mg/kg body weight), less than 2 nmol/g. Also, the “PS levels in plasma” value in data set [4] (plasma) is recorded as “undetectable”. The “inhibition of tumor growth (in words)” value with A549 xenografts is “small inhibition of tumor growth”. The “average tumor volume at the end of the study” value in the data set with A549 xenografts (day 36, PS V 200 mg/kg/d, curcumin 500 mg/kg/d, control 521±76 mm^3) came out at 419±36 mm^3. Also, the “reduction in tumor weight” value in the data set on A549 xenografts stood at 27%.
In data set [5], `CC1=C(CC(=O)O)c2cc(F)ccc2/C1=C\c1ccc(S(C)(=O)=O)cc1` [Sulindac sulfone XII, sulindac sulfone] gave a Cmax of 4.6 nmol/g.
On to `CC1=C(CC(=O)O)c2cc(F)ccc2/C1=C\c1ccc([S+](C)[O-])cc1` (stereo not drawn) [Sulindac, sulindac], for which the Tmax in [6] (lung) and in data set [6] (plasma) was 0 h throughout.
For the compound `COc1cc(/C=C/C(=O)CC(=O)/C=C/c2ccc(O)c(OC)c2)ccc1O` [curcumin, reference compound], in the data set on lung cancer, the “efficacy as a single agent” value is on record as less than 30%. In addition, in the data set with A549 xenografts, the “inhibition of tumor growth (in words)” value is given as “ineffective” and the “reduction in tumor weight” value is reported as “not in the curcumin-treated group”.
For `C#Cc1cccc(Nc2ncnc3cc(OCCOC)c(OCCOC)cc23)c1` [erlotinib, reference compound], the “reduced tumor volume compared to controls” value in data set [1] is listed as 74%.
Consider `CCOP(=O)(OCC)OCCCCOC(=O)c1ccccc1OC(C)=O` [phospho-aspirin 119, phospho-aspirin], for which the effect on inflammation result in the data set on inflammation is on record as “eliminated or greatly reduced inflammation”.
Turning to `CCOP(=O)(OCC)OCCCCNC(=O)C(C)c1ccc(CC(C)C)cc1` (stereo not drawn) [phospho-ibuprofen amide IV, phospho-ibuprofen amide], in [7], the “aerosolization when added to smoking tobacco” value is “aerosolized successfully”.
